Assay results: patent publication US20070281938A1, “Inhibitors of 11-Beta-Hydroxy Steroid Dehydrogenase Type 1” (Amgen Inc., priority 2004, published 2007)

target: T1, human 11-β-hydroxysteroid dehydrogenase type-1 enzyme (11-β-HSD1) (Homo sapiens, UniProt P28845); assay: Scintillation Proximity Assay, 11-β-HSD1 enzyme assay (Ki); assay type: biochemical; conditions: human 11-β-HSD1 expressed in Pichia pastoris; Ki calculated from IC50 (Cheng-Prusoff)
T1 construct: made in house; host or cells: Pichia pastoris (cell homogenate or microsomes)
Source text: [1,2(n)—^3H]-cortisone was purchased from Amersham Pharmacia Biotech. Anti-cortisol monoclonal mouse antibody, clone 6D6.7 was obtained from Immunotech and Scintillation proximity assay (SPA) beads coated with monoclonal antimouse antibodies were from Amersham Pharmacia Biotech. NADPH, tetrasodium salt was from Calbiochem and glucose-6-phosphate (G-6-P) was supplied by Sigma. The human 11-β-hydroxysteroid dehydrogenase type-1 enzyme (11-β-HSD1) was expressed in Pichiapastoris. 18-β-glycyrrhetinic acid (GA) was obtained from Sigma. The serial dilutions of the compounds were performed on a Tecan Genesis RSP 150. Compounds to be tested were dissolved in DMSO (1 mM) and diluted in 50 mM Tris-HCl, pH 7.2 containing 1 mM EDTA.
The multiplication of plates was done on a WallacQuadra. The amount of the product [^3H]-cortisol, bound to the beads was determined in a Packard, Top Count microplate liquid scintillation counter.
The 11-β-HSD1 enzyme assay was carried out in 96 well microtiter plates (Packard, Optiplate) in a total well volume of 220 μL and contained 30 mM Tris-HCl, pH 7.2 with 1 mM EDTA, a substrate mixture tritiated Cortisone/NADPH (175 nM/181 μM), G-6-P (1 mM) and inhibitors in serial dilutions (9 to 0.15 μM). […]
The plates were covered with plastic film and incubated on a shaker for 30 minutes, at room temperature, before counting. The amount of [^3H]-cortisol, bound to the beads was determined in a microplate liquid scintillation counter. […] The Ki value is calculated from IC50 and the Km value is calculated using the Cheng Prushoff equation (with reversible inhibition that follows the Michaelis-Menten equation): […] [Cheng, Y. C.; Prushoff, W. H. Biochem. Pharmacol. 1973, 22, 3099-3108]. The IC50 is measured experimentally in an assay wherein the decrease of the turnover of cortisone to cortisol is dependent on the inhibition potential of each substance. […]

T1 sequence (P28845 whole entry): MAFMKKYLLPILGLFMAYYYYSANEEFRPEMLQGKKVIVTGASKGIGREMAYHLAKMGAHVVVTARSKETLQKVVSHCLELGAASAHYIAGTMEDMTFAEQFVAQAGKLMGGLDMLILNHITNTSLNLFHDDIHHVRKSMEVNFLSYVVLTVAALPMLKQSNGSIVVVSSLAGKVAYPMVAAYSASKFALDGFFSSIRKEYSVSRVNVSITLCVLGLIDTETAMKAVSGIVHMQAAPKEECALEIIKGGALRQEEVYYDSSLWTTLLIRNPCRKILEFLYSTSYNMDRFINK

Ki | SMILES
0.25 µM | O=C1N=C(NC2CCCCCC2)SC12CCC2 [Example 10, 6-(Cycloheptylamino)-5-thia-7-azaspiro[3.4]oct-6-en-8-one]
0.107 µM | CC1(C)SC(NCC2CCCCC2)=NC1=O [Example 14, 2-[(cyclohexylmethyl)amino]-5,5-dimethyl-1,3-thiazol-4(5H)-one]
0.174 µM | CC(C)C1SC(NC2(c3ccc(Cl)cc3)CCC2)=NC1=O (stereo not drawn) [Example 48, 2-{[1-(4-Chlorophenyl)cyclobutyl]amino}-5-isopropyl-1,3-thiazol-4(5H)-one]
